One assay has as its system aorta. Nature of the assay: Vessel-relaxing action in vitro (phenylephrine-contracted aorta rings). As to conditions: Oryctolagus cuniculus; rabbit aorta rings, phenylephrine contraction; concentration reducing control contraction by 50%. The method, then: B-1. Vessel-Relaxing Action In Vitro
Rabbits are stunned with a blow on the back of the neck and exsanguinated. The aorta is removed, freed from adhering tissue, separated into rings with a width of 1.5 mm, and placed individually, with preloading, in 5-ml organ baths with carbogen-gassed Krebs-Henseleit solution at 37° C. with the following composition (mM in each case): sodium chloride: 119; potassium chloride: 4.8; calcium chloride dihydrate: 1; magnesium sulphate heptahydrate: 1.4; potassium dihydrogen phosphate: 1.2; sodium hydrogen carbonate: 25; glucose: 10. The contraction force is recorded with Statham UC2 cells, amplified and digitized via an A/D converter (DAS-1802 HC, Keithley Instruments Munich) and recorded in parallel on a continuous-line recorder. To produce contraction, phenylephrine is added to the bath cumulatively in increasing concentration. After several control cycles, the test substance is added in increasing dosage in each subsequent pass and the level of contraction is compared with the level of contraction reached in the immediately preceding pass. This is used for calculating the concentration that is required to reduce the level of the control value by 50% (IC50 value). The standard application volume is 5 μl, and the proportion of DMSO in the bath solution corresponds to 0.1%.

Assay [1] has as its target T1, recombinant guanylate cyclase reporter cell line (Rattus norvegicus, UniProt P19686+P20595).
T1 construct: expressed in transfected cells
T1 sequence (P20595 1-619): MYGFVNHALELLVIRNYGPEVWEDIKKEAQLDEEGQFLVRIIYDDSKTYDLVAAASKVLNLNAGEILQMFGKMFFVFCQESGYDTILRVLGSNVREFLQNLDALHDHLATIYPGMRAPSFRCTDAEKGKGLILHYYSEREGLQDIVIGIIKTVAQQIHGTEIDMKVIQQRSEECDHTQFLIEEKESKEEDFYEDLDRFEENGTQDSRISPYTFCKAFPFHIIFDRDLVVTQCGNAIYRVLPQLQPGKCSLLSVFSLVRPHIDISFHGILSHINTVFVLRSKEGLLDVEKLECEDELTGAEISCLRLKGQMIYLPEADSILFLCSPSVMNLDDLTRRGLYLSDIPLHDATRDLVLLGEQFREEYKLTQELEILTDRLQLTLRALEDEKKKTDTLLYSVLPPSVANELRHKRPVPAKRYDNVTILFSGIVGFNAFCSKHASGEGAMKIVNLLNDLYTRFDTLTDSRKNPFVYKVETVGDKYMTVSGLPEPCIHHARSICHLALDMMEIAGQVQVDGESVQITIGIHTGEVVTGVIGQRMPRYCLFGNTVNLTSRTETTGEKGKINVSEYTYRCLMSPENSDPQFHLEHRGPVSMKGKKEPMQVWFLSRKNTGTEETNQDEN
T1 sequence (P19686 1-690): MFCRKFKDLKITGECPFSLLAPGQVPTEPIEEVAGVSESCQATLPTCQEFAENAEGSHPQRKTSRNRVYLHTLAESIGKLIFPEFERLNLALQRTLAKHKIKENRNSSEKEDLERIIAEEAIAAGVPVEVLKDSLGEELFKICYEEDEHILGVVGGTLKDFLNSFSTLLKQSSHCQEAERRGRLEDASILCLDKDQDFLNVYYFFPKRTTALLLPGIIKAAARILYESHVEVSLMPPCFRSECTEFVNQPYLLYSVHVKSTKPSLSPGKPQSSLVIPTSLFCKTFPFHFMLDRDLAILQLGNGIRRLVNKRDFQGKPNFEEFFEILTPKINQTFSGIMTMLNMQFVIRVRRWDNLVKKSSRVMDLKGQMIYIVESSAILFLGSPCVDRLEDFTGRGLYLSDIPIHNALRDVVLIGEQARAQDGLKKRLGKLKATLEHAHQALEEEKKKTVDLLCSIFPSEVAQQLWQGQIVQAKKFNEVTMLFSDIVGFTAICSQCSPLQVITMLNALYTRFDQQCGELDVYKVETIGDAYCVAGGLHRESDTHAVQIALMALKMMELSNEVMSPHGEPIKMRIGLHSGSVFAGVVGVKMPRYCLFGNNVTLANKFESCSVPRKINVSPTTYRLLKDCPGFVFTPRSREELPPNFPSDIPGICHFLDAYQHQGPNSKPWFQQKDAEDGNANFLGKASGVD
Nature of the assay: Action on recombinant guanylate cyclase reporter cell line. The format is cell-based. As to the method:
B-2. Action on Recombinant Guanylate Cyclase Reporter Cell Line
The cellular action of the compounds according to the invention is determined on a recombinant guanylate cyclase reporter cell line, as described in F. Wunder et al., Anal. Biochem. 339, 104-112 (2005).

Each structure is given as a SMILES string.

In turn, `CC1(C)C(=O)Nc2nc(-c3nn(Cc4ccccc4F)c4ncc(F)cc34)ncc21` [Example 2, 2-[5-Fluoro-1-(2-fluorobenzyl)-1H-pyrazolo[3,4-b]pyridin-3-yl]-5,5-dimethyl-5,7-dihydro-6H-pyrrolo[2,3-d]pyrimidin-6-one] had an IC50 in the assay on aorta of 12 nM. Also, the “MEC (minimal effective concentration)” value in assay [1] was found to be 0.01 µM.
As for `O=C1Nc2nc(-c3nn(Cc4ccccc4F)c4ncccc34)ncc2C12CCOC2` (centres unmarked) [Example 3, 2′-[1-(2-Fluorobenzyl)-1H-pyrazolo[3,4-b]pyridin-3-yl]-4,5-dihydrospiro[furan-3,5′-pyrrolo[2,3-d]pyrimidin]-6′(7′H)-one], the “MEC (minimal effective concentration)” value in assay [1] came to 0.03 µM.
Consider `O=C1Cc2cnc(-c3nn(Cc4ccccc4F)c4ncccc34)nc2N1` [Example 4, 2-[1-(2-Fluorobenzyl)-1H-pyrazolo[3,4-b]pyridin-3-yl]-5,7-dihydro-6H-pyrrolo[2,3-d]pyrimidin-6-one], for which, in assay [1], the “MEC (minimal effective concentration)” value was found to be 0.03 µM.
Regarding `O=C1Nc2nc(-c3nn(Cc4ccccc4F)c4ncccc34)ncc2C12CC2` [Example 5, 2′-[1-(2-Fluorobenzyl)-1H-pyrazolo[3,4-b]pyridin-3-yl]spiro[cyclopropane-1,5′-pyrrolo[2,3-d]pyrimidin]-6′(7′H)-one], in assay [1], the “MEC (minimal effective concentration)” value was found to be 0.03 µM.
Still for that read-out and setting: the value for `O=C1Cc2nnc(-c3nn(Cc4ccccc4F)c4ncccc34)nc2N1` [Example 6, 3-[1-(2-Fluorobenzyl)-1H-pyrazolo[3,4-b]pyridin-3-yl]-5,7-dihydro-6H-pyrrolo[2,3-e][1,2,4]-triazin-6-one] was 0.03 µM.
On to `CC1(C)C(=O)Nc2nc(-c3nn(Cc4ccccc4F)c4ncccc34)nc(C(F)F)c21` [Example 7, 4-(Difluoromethyl)-2-[1-(2-fluorobenzyl)-1H-pyrazolo[3,4-b]pyridin-3-yl]-5,5-dimethyl-5,7-dihydro-6H-pyrrolo[2,3-d]pyrimidin-6-one], for which the half-maximal inhibitory concentration (IC50) with aorta stood at 45 nM. Also, the “MEC (minimal effective concentration)” value in assay [1] amounted to 0.03 µM.
Compound `O=C1Nc2nc(-c3nn(Cc4ccc(F)cc4F)c4ncccc34)ncc2C12CC2` [Example 8, 2′-[1-(2,4-Difluorobenzyl)-1H-pyrazolo[3,4-b]pyridin-3-yl]spiro[cyclopropane-1,5′-pyrrolo[2,3-d]pyrimidin]-6′(7′H)-one] gave a half-maximal inhibitory concentration (IC50) with aorta of 13 nM. Besides, the “MEC (minimal effective concentration)” value in assay [1] was 0.03 µM.
For the compound `O=C1Nc2nc(-c3nn(Cc4cccc(F)c4F)c4ncccc34)ncc2C12CC2` [Example 10, 2′-[1-(2,3-Difluorobenzyl)-1H-pyrazolo[3,4-b]pyridin-3-yl]spiro[cyclopropane-1,5′-pyrrolo[2,3-d]pyrimidin]-6′(7′H)-one], the half-maximal inhibitory concentration (IC50) in the assay on aorta was 6 nM. The “MEC (minimal effective concentration)” value in assay [1] was 0.03 µM.
`CC1(C)C(=O)Nc2nc(-c3nn(Cc4cccc(F)c4F)c4ncccc34)ncc21` [Example 11, 2-[1-(2,3-Difluorobenzyl)-1H-pyrazolo[3,4-b]pyridin-3-yl]-5,5-dimethyl-5,7-dihydro-6H-pyrrolo[2,3-d]pyrimidin-6-one]: half-maximal inhibition in the assay with aorta (IC50) was put at 4 nM. In assay [1], the “MEC (minimal effective concentration)” value is 0.03 µM.
On to `CC1(C)C(=O)Nc2nc(-c3nn(Cc4ccccc4F)c4ncccc34)nc(C3CC3)c21` [Example 12, 4-Cyclopropyl-2-[1-(2-fluorobenzyl)-1H-pyrazolo[3,4-b]pyridin-3-yl]-5,5-dimethyl-5,7-dihydro-6H-pyrrolo[2,3-d]pyrimidin-6-one], for which, in assay [1], the “MEC (minimal effective concentration)” value is 0.1 µM.
Still for that read-out and setting: the value for `CC1(C)C(=O)Nc2nc(-c3nn(Cc4ccc(F)cc4F)c4ncccc34)ncc21` [Example 13, 2-[1-(2,4-Difluorobenzyl)-1H-pyrazolo[3,4-b]pyridin-3-yl]-5,5-dimethyl-5,7-dihydro-6H-pyrrolo[2,3-d]pyrimidin-6-one] was 0.1 µM.
As to `CC1CC(=O)Nc2nc(-c3nn(Cc4ccccc4F)c4ncccc34)ncc21` (centres unmarked) [Example 14, 2-[1-(2-Fluorobenzyl)-1H-pyrazolo[3,4-b]pyridin-3-yl]-5-methyl-5,8-dihydropyrido[2,3-d]-pyrimidin-7(6H)-one], the IC50 in the assay with aorta was determined as 65 nM. Besides, the “MEC (minimal effective concentration)” value in assay [1] stood at 0.1 µM.
In the case of `O=C1CC(C(F)(F)F)c2cnc(-c3nn(Cc4ccccc4F)c4ncccc34)nc2N1` (centres unmarked) [Example 15, 2-[1-(2-Fluorobenzyl)-1H-pyrazolo[3,4-b]pyridin-3-yl]-5-(trifluoromethyl)-5,8-dihydropyrido[2,3-d]pyrimidin-7(6H)-one], the “MEC (minimal effective concentration)” value in assay [1] is 0.3 µM.
On to `O=C1Nc2nc(-c3nn(Cc4ccccc4F)c4ncccc34)ncc2C1=O` [Example 16, 2-[1-(2-Fluorobenzyl)-1H-pyrazolo[3,4-b]pyridin-3-yl]-5H-pyrrolo[2,3-d]pyrimidine-5,6(7H)-dione], for which the “MEC (minimal effective concentration)” value in assay [1] turned out to be 1.0 µM.
Turning to `CC1(C)C(=O)Nc2nc(-c3nn(Cc4ccc(F)cc4F)c4ncc(F)cc34)nnc21` [Example 21, 3-[1-(2,4-Difluorobenzyl)-5-fluoro-1H-pyrazolo[3,4-b]pyridin-3-yl]-7,7-dimethyl-5,7-dihydro-6H-pyrrolo[2,3-e][1,2,4]triazin-6-one], the “MEC (minimal effective concentration)” value in assay [1] is 0.1 µM.
`O=C1Nc2nc(-c3nn(Cc4ccccc4F)c4ncccc34)ncc2C1(O)c1ccccc1` (centres unmarked) [Example 22, 2-[1-(2-Fluorobenzyl)-1H-pyrazolo[3,4-b]pyridin-3-yl]-5-hydroxy-5-phenyl-5,7-dihydro-6H-pyrrolo[2,3-d]pyrimidin-6-one]: the “MEC (minimal effective concentration)” value in assay [1] is 0.03 µM.
With `O=C(O)CC1(O)C(=O)Nc2nc(-c3nn(Cc4ccccc4F)c4ncccc34)ncc21` (centres unmarked) [Example 25, {2-[1-(2-Fluorobenzyl)-1H-pyrazolo[3,4-b]pyridin-3-yl]-5-hydroxy-6-oxo-6,7-dihydro-5H-pyrrolo[2,3-d]pyrimidin-5-yl}acetic acid], the “MEC (minimal effective concentration)” value in assay [1] was 1.0 µM.
On to `CC1(C)C(=O)Nc2nc(-c3nn(Cc4c(F)ccc(F)c4F)c4ncc(F)cc34)nnc21` [Example 29, 3-[5-Fluoro-1-(2,3,6-trifluorobenzyl)-1H-pyrazolo[3,4-b]pyridin-3-yl]-7,7-dimethyl-5,7-dihydro-6H-pyrrolo[2,3-e][1,2,4]triazin-6-one], for which the “MEC (minimal effective concentration)” value in assay [1] was found to be 0.1 µM.
For `COC(=O)C(C)(C)c1nnc(-c2nn(Cc3ccc(F)cc3F)c3ncccc23)nc1O` [Example 77A, Methyl 2-{3-[1-(2,4-difluorobenzyl)-1H-pyrazolo[3,4-b]pyridin-3-yl]-5-hydroxy-1,2,4-triazin-6-yl}-2-methylpropanoate], in assay [1], the “MEC (minimal effective concentration)” value was 1.0 µM.
As to `COC(=O)C(C)(C)c1nnc(-c2nn(Cc3c(F)ccc(F)c3F)c3ncc(F)cc23)nc1O` [Example 82A, Methyl 2-{3-[5-fluoro-1-(2,3,6-trifluorobenzyl)-1H-pyrazolo[3,4-b]pyridin-3-yl]-5-hydroxy-1,2,4-triazin-6-yl}-2-methylpropanoate], the “MEC (minimal effective concentration)” value in assay [1] came to 0.3 µM.

As usually defined, the IC50 is the concentration that gives 50% inhibition.
